20 compounds from patent US4988497A, “Process for the optical determination of lipase” (Boehringer Mannheim GmbH, priority 1985, dated 1991) can be followed below.

Where only a bound is given, the exact number is not on record here.

Data set [1] relates to carboxyl esterase (EC 3.1.1.1). As to the kind of experiment: esterase sensitivity. In kind it is biochemical. Particulars: for esterase sensitivity (activity 20,000 U/l): 100 μl carboxyl esterase about 20,000 U/l, 578 nm; for Esterase sensitivity: emulsion prepared as in Example 22. Here is the method: (§1) 1.2 g. Sodium desoxycholate and 0.15 mg. colipase (from the pig) are dissolved in 60 ml. distilled water, with stirring. A solution of 70 mg. of the lipase substrate 1,2-0-dioctyl-rac-glycero-3-azelaic acid resorufin ester (Example 4) in 1.7 ml. n-propanol are injected herein under pressure in the thinnest possible stream, with vigorous stirring. A solution which, in 200 ml. distilled water, contains 1.5 g. urea, 1 g. sodium desoxycholate, 200 mg. sodium chloride, 800 mg. TRIS and 107 mg. TRIS.HCl, is well mixed with the above-produced emulsion.
(§2) 2.5 ml. of the so produced solution are mixed with 100 μ. of sample (serum). The reaction is monitored photometrically at 578 nm Hg.
For the determination of the esterase sensitivity, instead of the sample there were added 100 μl. carboxyl esterase (EC 3.1.1.1; about 20,000 U/1. Boehringer Mannheim GmbH, Order No. 10 46 98) and the extinction change monitored as described above.

For data set [2], the system named is lipase (EC 3.1.1.3). Briefly: lipase sensitivity. In kind it is biochemical. Conditions: for lipase sensitivity (activity 100 U/l): 100 μl lipase about 100 U/l, 578 nm. Here is the method: as §1, §2
For the determination of the lipase sensitivity, instead of the sample there were added 100 μl. lipase (EC 3.1.1.3; about 100 U/1., Boehringer Mannheim GmbH, Order No. 41 45 90) and the extinction change monitored as described above.

A short description of data set [3]: blank change (water instead of sample). In kind it is physicochemical. Particulars: 100 μl water instead of sample; extinction change at 578 nm. The method, then:
as §1, §2
The blank change was determined with a reagent according to Example 1 and various lipase substrates. Instead of the sample, 100 μ1. water were added and the extinction change monitored photometrically at 578 nm (ΔmE/min.).

A short description of data set [4]: blank change (water instead of sample). It is filed as physicochemical.
Data set [5] concerns lipase (EC 3.1.1.3). Briefly: lipase sensitivity. In kind it is biochemical.
Where [6] appears, read: emulsion prepared as in Example 22.
Where [7] appears, read: taurodesoxycholate/TRIS reagent pH 7.5, 578 nm.
Setting [8] is: fluorometric, 25° C., excitation 364 nm, emission 448 nm.

In the case of `CCCCCCCCCCCCOCC(COC(=O)CCCCCC(=O)Oc1ccc2nc3ccc(=O)cc-3oc2c1)OCCCCCCCCCCCC` (racemic) [Example 8, 1,2-O-Dilauryl-rac-glycero-3-pimelic acid resorufin ester], the “esterase sensitivity (activity 20,000 U/l)” value in data set [1] is 27.8 ΔmE/min. The “lipase sensitivity (activity 100 U/l)” value in the data set with lipase (EC 3.1.1.3) [2] is listed as 4.68 ΔmE/min. Further, the blank in data set [3] is 2.1-2.4 ΔmE/min.

In the case of `CCCCCCCCCCCCOCC(COC(=O)CCCC(=O)Oc1ccc2nc3ccc(=O)cc-3oc2c1)OCCCCCCCCCCCC` (racemic) [Example 7, 1,2-O-Dilauryl-rac-glycero-3-glutaric acid resorufin ester], the “esterase sensitivity (activity 20,000 U/l)” value in data set [1] was 34.8 ΔmE/min. Moreover, the “lipase sensitivity (activity 100 U/l)” value in the data set with lipase (EC 3.1.1.3) [2] is given as 10.9 ΔmE/min. In addition, the blank in data set [3] is listed as 2.4-3.0 ΔmE/min.

`CCCCCCCCOCC(COC(=O)CCCCCCCC(=O)Oc1ccc2nc3ccc(=O)cc-3oc2c1)OCCCCCCCC` (racemic) [Example 4, 1,2-O-dioctyl-rac-glycero-3-azelaic acid resorufin ester]: the “esterase sensitivity (activity 20,000 U/l)” value in data set [1] is reported as 33.6 ΔmE/min. Also, the “lipase sensitivity (activity 100 U/l)” value in the data set with lipase (EC 3.1.1.3) [2] is given as 18.04 ΔmE/min. Moreover, the blank in data set [3] is 0.4-0.8 ΔmE/min.

In turn, `CCCCCCCCCCCCOCC(COC(=O)CCC(=O)Oc1ccc2nc3ccc(=O)cc-3oc2c1)OCCCCCCCCCCCC` (racemic) [Example 34, 1,2-0-Dilauryl-rac-glycero-3-succinic acid resorufin ester] yielded a Lipase sensitivity with lipase (EC 3.1.1.3) [2] (setting [6]) of 8.7 mE/min per 100 U/1.

In turn, `CCCCCCCCCCCCSCC(COC(=O)CCCC(=O)Oc1ccc2nc3ccc(=O)cc-3oc2c1C)SCCCCCCCCCCCC` (racemic) [Example 37, 1,2-S-Dilauryl-rac-1,2-dithioglycero-3-glutaric acid (6-methylresorufin) ester] had an Esterase sensitivity in data set [1] of 3.4 mE/min. This compound had a Lipase sensivity in the data set on lipase (EC 3.1.1.3) [2] (emulsion prepared as in Example 22, no lipase activity printed) of 24 mE/min. The same compound registered a blank in data set [4] (setting [6]) of 3 mE/min.

Regarding `CCCCCCCCCCCCOCC(COC(=O)CCCC(=O)Sc1ccc([N+](=O)[O-])cc1)OCCCCCCCCCCCC` (racemic) [Example 32, 1,2-0-Dilauryl-rac-glycero-3-qlutaric acid-(p-nitrothiophenyl)-ester], the Lipase sensitivity with lipase (EC 3.1.1.3) [5] (CHES reagent pH 8.3, 405 nm) amounted to 12.2 mE/min per 100 U/1. In data set [4] (CHES reagent pH 8.3, 405 nm), this compound returned a blank of 0.3 mE/min.

As to `CCCCCCCCOCC(COC(=O)CCCCCC(=O)Oc1ccc2nc3ccc(=O)cc-3oc2c1)OCCCCCCCC` (racemic) [Example 3, 1,2-O-dioctyl-rac-glycero-3-pimelic acid resorufin ester], the “esterase sensitivity (activity 20,000 U/l)” value in data set [1] is recorded as 112.5 ΔmE/min. The “lipase sensitivity (activity 100 U/l)” value in the data set with lipase (EC 3.1.1.3) [2] is recorded as 12.28 ΔmE/min. Also, the blank in data set [3] is recorded as 3.9-4.1 ΔmE/min.

In the case of `CCCCCCCCCCCCOCC(COC(=O)CCCCCCCC(=O)Oc1ccc2nc3ccc(=O)cc-3oc2c1)OCCCCCCCCCCCC` (racemic) [Example 21, 1,2-0-Dilauryl-rac-glycero-3-azelaic acid resorufin ester], the “esterase sensitivity (activity 20,000 U/l)” value in data set [1] is given as 9.5 ΔmE/min. In the data set on lipase (EC 3.1.1.3) [2], the “lipase sensitivity (activity 100 U/l)” value is 13.2 ΔmE/min. The blank in data set [3] is 9.8-11.9 ΔmE/min.

Regarding `CCCCCCCCCCCOCC(COC(=O)CCCC(=O)Oc1ccc2nc3ccc(=O)cc-3oc2c1)OCCCCCCCCCCC` (racemic) [Example 6, 1,2-O-Diundecyl-rac-glycero-3-glutaric acid resorufin ester], the “esterase sensitivity (activity 20,000 U/l)” value in data set [1] is given as 23.6 ΔmE/min. In addition, the “lipase sensitivity (activity 100 U/l)” value in the data set with lipase (EC 3.1.1.3) [2] is 6.96 ΔmE/min. Further, the blank in data set [3] is 2.0-2.8 ΔmE/min.

In the case of `CCCCCCCCCCOCC(COC(=O)CCCCCC(=O)Oc1ccc2nc3ccc(=O)cc-3oc2c1)OCCCCCCCCCC` (racemic) [Example 20, 1,2-0-Didecyl-rac-glycero-3-pimelic acid resorufin ester], the “esterase sensitivity (activity 20,000 U/l)” value in data set [1] is reported as 48.7 ΔmE/min. The “lipase sensitivity (activity 100 U/l)” value in the data set with lipase (EC 3.1.1.3) [2] is 9.8 ΔmE/min. For the same compound, the blank in data set [3] is on record as 1.3-2.0 ΔmE/min.

On to `CCCCCCCCCCCCCCCCC(COC(=O)CCCC(=O)Oc1ccc2nc3ccc(=O)cc-3oc2c1C)OCCCCCCCCCCCC` (stereo not shown) [Example 35], for which the Esterase sensitivity in data set [1] amounted to 1.0 mE/min. Besides, the Lipase sensitivity in the data set on lipase (EC 3.1.1.3) [2] (setting [6]) was 25.5 mE/min per 100 U/1.

With `CCCCCCCCCCCCOCC(CSC(=O)CCCC(=O)Oc1ccc2nc3ccc(=O)cc-3oc2c1C)OCCCCCCCCCCCC` (racemic) [Example 36, 1,2-0-Dilauryl-rac-3-thioglycero-3-S-glutaric acid (6-methylresorufin) ester], the Esterase sensitivity in data set [1] is on record as 1.3 mE/min. The same compound displayed a Lipase sensitivity with lipase (EC 3.1.1.3) [2] (setting [6]) of 4.1 mE/min per 100 U/1.

In the data set on lipase (EC 3.1.1.3) [5] (setting [7]), `CCCCCCCCCCCCOCC(COC(=O)CCCC(=O)Oc1ccc2nc3ccc(=O)cc-3oc2c1C)OCCCCCCCCCCCC` (racemic) [Example 29, 1,2-0-Dilauryl-rac-qlycero-3-glutaric-acid (6-methyl-resorufin)-ester] registered a Lipase sensitivity of 28 mE/min per 100 U/l. The same compound displayed a blank in data set [4] (setting [7]) of 0.4 mE/min.

With `CCCCCCCCCCCCOCC(COC(=O)CCCC(=O)Oc1ccc2c(C)cc(=O)oc2c1)OCCCCCCCCCCCC` (racemic) [Example 31, 1,2-0-Dilauryl-rac-glycero-3-glutaric acid-(4-methylumbelliferyl)-ester], the Lipase sensitivity in the data set with lipase (EC 3.1.1.3) [5] (setting [8]) turned out to be 28 mE/min per 100 U/1. In data set [4] (setting [8]), this compound registered a blank of 0.4 mE/min.

Consider `CCCCCCOCC(COC(=O)CCCC(=O)Oc1ccc2nc3ccc(=O)cc-3oc2c1)OCCCCCC` (racemic) [Example 1, 1,2-O-Dihexyl-rac-glycero-3-glutaric acid resorufin ester], for which the “esterase sensitivity (activity 20,000 U/l)” value in data set [1] was > 1000 ΔmE/min. Moreover, the blank in data set [3] was 13.2 ΔmE/min.

In the case of `CCCCCCCCCCOCC(COC(=O)CCCC(=O)Oc1ccc2nc3ccc(=O)cc-3oc2c1)OCCCCCCCCCC` (racemic) [Example 5, 1,2-O-Didecyl-rac-glycero-3-glutaric acid resorufin ester], the “esterase sensitivity (activity 20,000 U/l)” value in data set [1] was 30.2 ΔmE/min. In addition, the “lipase sensitivity (activity 100 U/l)” value with lipase (EC 3.1.1.3) [2] is given as 22.18 ΔmE/min. For the same compound, the blank in data set [3] is reported as 2.4-3.0 ΔmE/min.

As for `CCCCCCCCOCC(COC(=O)CCCC(=O)Oc1ccc2nc3ccc(=O)cc-3oc2c1)OCCCCCCCC` (racemic) [Example 2, 1,2-O-Dioctyl-rac-glycero-3-glutaric acid resorufin ester], in data set [1], the “esterase sensitivity (activity 20,000 U/l)” value was 144.0 ΔmE/min. Moreover, the “lipase sensitivity (activity 100 U/l)” value in the data set with lipase (EC 3.1.1.3) [2] is ~ 100 ΔmE/min. In addition, the blank in data set [3] is listed as 7.0 ΔmE/min.

For `CCCCCCCCCCCCOCC(COC(=O)CCCCCCCCCCCCC(=O)Oc1ccc2nc3ccc(=O)cc-3oc2c1C)OCCCCCCCCCCCC` (racemic) [Example 28, 1,2-0-Dilauryl-rac-glycero-3-tetradecandiacid (6-methylresorufin) ester], in data set [1], the Esterase sensitivity was 0.7 mE/min. In the data set with lipase (EC 3.1.1.3) [2] (setting [6]), this compound yielded a Lipase sensitivity of 23.6 mE/min per 100 U/1. In data set [4] (setting [6]), this compound displayed a blank of 0.2 mE/min.

Take `CCCCCCCCCCCCCCCCC(COCC(COC(=O)CCCC(=O)Oc1ccc2nc3ccc(=O)cc-3oc2c1C)OC)OC` (racemic) [Example 33, 1-0-(2-Methoxy-octadecyl)-2-0-methyl-rac-glycero-3-glutaric acid-(6-methylresorufin) ester]: in data set [1], the Esterase sensitivity is 25.3 mE/min. In addition, in the data set with lipase (EC 3.1.1.3) [2] (setting [6]), the Lipase sensitivity is recorded as 19.0 mE/min per 100 U/1. The blank in data set [4] (setting [6]) came out at 8.4 mE/min.

`CCCCCCCCCCCCCCCCOC[C@H](COC(=O)CCCC(=O)Oc1ccc2nc3ccc(=O)cc-3oc2c1)OCCCCCCCCCCCCCCCC` [Example 11, 1,2-O-Dihexadecyl-sn-glycero-3-glutaric acid resorufin ester]: in data set [1], the “esterase sensitivity (activity 20,000 U/l)” value was 1.8 ΔmE/min. Besides, the “lipase sensitivity (activity 100 U/l)” value with lipase (EC 3.1.1.3) [2] is listed as 0.97 ΔmE/min. Besides, the blank in data set [3] was 0.1 ΔmE/min.
